Results published in US20240368131A1, “OXOINDOLINYL AMIDE DERIVATIVES FOR INHIBITING NLRP3 AND USES THEREOF” (VENTUS THERAPEUTICS U.S. INC., priority 2022, published 2024).

How the values were obtained:
Assay type in all cases: cell-based
human NLRP3 [1] = target: T1, human NLRP3 (Homo sapiens, UniProt Q96P20); assay: Human Whole Blood (hWB) NLRP3 Assay (IL-1β MSD); settings: LPS 1 μg/ml 4.5 h, ATP 30 min, class symbols
Protocol: Human whole blood was drawn from healthy volunteers after obtaining written informed consent. Heparin lithium coated tubes were used to collect blood from volunteers. Blood samples were distributed on 96 well plates using 90 μl per well. Priming was performed by adding 5 μl of LPS (O26:B6; Sigma L-2654) at a final concentration of 1 μg/ml for 4.5 hours in a humidified incubator with 37° C., 5% CO2. Thirty minutes prior to NLRP3 activation, 5 μl of a 20× compound solution or vehicle (2% DMSO) was added to each well and plates were incubated on a shaker (450 rpm) in a humidified incubator with 37° C., 5% CO2. Activation was then performed by adding 3.3 μl of a 31× ATP solution per well. At the end of the 30 minutes stimulation, the plates were centrifuged (800 g, 10 min, room temperature) and the plasma from each well was frozen at −80° C. IL-1β levels in the supernatant were analyzed using a mesoscale discovery assay (MSD K151TUK) according to the manufacturers' instructions.
hWB IL-1β Assay: A represents an IC50 value <0.3 μM; B represents an IC50 value ≥0.3 μM and <0.5 μM; C represents an IC50 value ≥0.5 μM and <1.0 μM; D represents an IC50 value >1.0 μM.

human NLRP3 [2] = target: T1, human NLRP3; assay: Human PBMC NLRP3 Assay (IL-1β release); parameters: Human PBMCs (Normal): iXCells Cat #10HU-003; host or cells: human PBMCs (normal donors), LPS-primed, nigericin-stimulated; settings: human PBMCs
Protocol: Reagents: Human PBMCs (Normal): iXCells Cat #10HU-003; RPMI 1640 medium (ATCC modification): ThermoFisher Cat #A1049101 (Complete Media: 10% FBS, 1% Pen/Strep; Assay Media: 1% Pen/Strep; 75 cm^2 cell culture flask: Corning Cat #430641U; 96-well cell culture plates: VWR Cat #10062-900; LPS (E. coli 026:B6): Sigma Cat #L2654, stock 5 mg/mL in PBS; Nigericin sodium salt: Sigma Cat #N7143, stock 5 mg/mL (6.7 mM) in ethanol.
Cryopreserved PBMCs (10×10^6 cells/vial) were rapidly thawed in a 37° C. water bath for 2 min and transferred in 10 mL Complete Media. Cells were then centrifuged at 1200 RPM for 5 min, resuspended in 40 mL of Complete Media, transferred in a 75 cm^2 cell culture flask and incubated overnight at 37° C. with 5% CO2. The next day, PBMCs were centrifuged, resuspended in 30 mL Assay Media (˜3.3×10^5 cells/mL) and distributed at 100 μL/well in a 96-well cell culture plate. 50 μl of Assay Media containing 300 ng/ml of LPS was then added to each well except for the untreated control wells (50 μl Assay Media without LPS). Cells were then primed with LPS for 4 h at 37° C. with 5% CO2. A concentration response curve (CRC) was prepared of 500× test compound in 100% dimethyl sulfoxide (DMSO). The CRC was then diluted 1:25 in Assay Media and then further diluted 1:5 in Assay Media resulting in a final 4× CRC in 0.8% DMSO/Assay Media. 50 μL/well of 4× test compound CRC or vehicle (0.8% DMSO/Assay Media) was then transferred into each well and subsequently incubated for 30 min at 37° C. with 5% CO2. Cells were stimulated by adding 4 μL of 500 μM Nigericin, for 1 h at 37° C. with 5% CO2 Plates were then centrifuged at 1200 RPM for 5 min and 100 μl of the media was transferred to a clean 96-well storage plate and stored at −80° C. until analyzed. Cytokine measurements were performed using the mesoscale platform. Compounds were added 30 minutes before priming the cells with LPS when TNFα was required to be quantified in the cytokine panel to confirm selectivity.
Human PBMC NLRP3 Assay: A represents an IC50 value <0.3 μM; B represents an IC50 value ≥0.3 μM and <0.5 μM; C represents an IC50 value ≥0.5 μM and <1.0 μM; D represents an IC50 value >1.0 μM and <10 μM; E represents an IC50 value >10 μM.

mouse NLRP3 = target: T2, mouse NLRP3 (Mus musculus, UniProt Q8R4B8); assay: Mouse Whole Blood (mWB) NLRP3 Assay (IL-1β MSD); settings: CD1 mouse whole blood, LPS 1 μg/mL 5 h, ATP 5 mM; class symbols
T2 construct: Blood was drawn from female CD1 mice (9 to 10 weeks) by cardiac puncture; from tissue; host or cells: whole blood of female CD1 mice, LPS-primed, ATP-stimulated
T2 sequence (Q8R4B8 whole entry): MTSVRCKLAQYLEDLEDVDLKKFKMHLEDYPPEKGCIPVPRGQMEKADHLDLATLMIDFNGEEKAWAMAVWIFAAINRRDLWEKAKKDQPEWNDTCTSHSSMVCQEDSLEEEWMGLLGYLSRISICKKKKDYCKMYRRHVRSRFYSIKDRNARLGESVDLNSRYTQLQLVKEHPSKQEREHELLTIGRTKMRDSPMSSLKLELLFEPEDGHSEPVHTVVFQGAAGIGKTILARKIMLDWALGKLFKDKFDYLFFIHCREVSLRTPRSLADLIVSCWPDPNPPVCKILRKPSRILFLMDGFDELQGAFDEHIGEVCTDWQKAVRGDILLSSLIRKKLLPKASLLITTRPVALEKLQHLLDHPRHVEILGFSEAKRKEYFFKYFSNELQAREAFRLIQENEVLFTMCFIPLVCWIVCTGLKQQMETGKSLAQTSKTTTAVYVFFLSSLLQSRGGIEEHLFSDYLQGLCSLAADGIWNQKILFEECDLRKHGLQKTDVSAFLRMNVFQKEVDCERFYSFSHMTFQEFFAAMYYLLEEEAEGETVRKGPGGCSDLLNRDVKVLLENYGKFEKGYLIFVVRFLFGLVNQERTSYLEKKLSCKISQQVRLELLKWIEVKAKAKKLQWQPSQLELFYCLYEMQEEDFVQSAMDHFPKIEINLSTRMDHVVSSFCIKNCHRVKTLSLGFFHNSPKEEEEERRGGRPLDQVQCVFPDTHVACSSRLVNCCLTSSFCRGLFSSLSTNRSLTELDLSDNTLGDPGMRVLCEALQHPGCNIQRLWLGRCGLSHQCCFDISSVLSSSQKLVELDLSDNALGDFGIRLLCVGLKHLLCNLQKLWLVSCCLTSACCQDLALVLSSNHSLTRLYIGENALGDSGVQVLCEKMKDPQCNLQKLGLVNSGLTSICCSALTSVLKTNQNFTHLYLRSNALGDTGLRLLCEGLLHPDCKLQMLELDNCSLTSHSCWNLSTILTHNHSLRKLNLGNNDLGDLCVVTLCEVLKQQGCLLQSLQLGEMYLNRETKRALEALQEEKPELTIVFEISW
Protocol: Reagents: The following reagents were used: blood collection tubes (Heparin); U-bottom 96-well tissue culture (Falcon 353077); HBSS for LPS, ATP and compound dilutions (Gibco 24020-117); and LPS, E. coli serotype 026:B6 (Sigma L-2654).
Mouse IL-1b MSD assay: Blood was drawn from female CD1 mice (9 to 10 weeks) by cardiac puncture. Blood was plated (135 μL) per well in 96-well U-bottom plates. 7.5 μL of 20× LPS (20 μg/mL, final concentration of 1 μg/mL) was added and mixed by gentle pipetting, and the mixture was incubated in a TC incubator for five hours. 7.5 μL of 20× compound or vehicle per well was added and mixed by gentle pipetting. Compounds were diluted 1/50 in HBSS to prepare a 20× dilution curve in 2% DMSO. The mixture was incubated for 30 minutes in a TC incubator with shaking (450 rpm). 5 μl of 31× ATP (155 mM, final concentration of 5 mM) was added and mixed by gentle pipetting. The mixture was incubated in a TC incubator for 30 minutes with shaking (450 rpm). The plate was centrifuged for 10 minutes at 800×g and ˜70 μL of plasma was removed. Plasma was frozen if required. Mouse IL-1b was analyzed with IL-1b MSD assay (K152TUK). […]
mWB IL-1β Assay: A represents an IC50 value <0.3 μM; B represents an IC50 value ≥0.3 μM and <0.5 μM; C represents an IC50 value ≥0.5 μM and <1.0 μM; D represents an IC50 value ≥1.0 μM.

[3] = LPS priming 4 h, nigericin stimulation 1 h, class symbols

T1 sequence (Q96P20 whole entry): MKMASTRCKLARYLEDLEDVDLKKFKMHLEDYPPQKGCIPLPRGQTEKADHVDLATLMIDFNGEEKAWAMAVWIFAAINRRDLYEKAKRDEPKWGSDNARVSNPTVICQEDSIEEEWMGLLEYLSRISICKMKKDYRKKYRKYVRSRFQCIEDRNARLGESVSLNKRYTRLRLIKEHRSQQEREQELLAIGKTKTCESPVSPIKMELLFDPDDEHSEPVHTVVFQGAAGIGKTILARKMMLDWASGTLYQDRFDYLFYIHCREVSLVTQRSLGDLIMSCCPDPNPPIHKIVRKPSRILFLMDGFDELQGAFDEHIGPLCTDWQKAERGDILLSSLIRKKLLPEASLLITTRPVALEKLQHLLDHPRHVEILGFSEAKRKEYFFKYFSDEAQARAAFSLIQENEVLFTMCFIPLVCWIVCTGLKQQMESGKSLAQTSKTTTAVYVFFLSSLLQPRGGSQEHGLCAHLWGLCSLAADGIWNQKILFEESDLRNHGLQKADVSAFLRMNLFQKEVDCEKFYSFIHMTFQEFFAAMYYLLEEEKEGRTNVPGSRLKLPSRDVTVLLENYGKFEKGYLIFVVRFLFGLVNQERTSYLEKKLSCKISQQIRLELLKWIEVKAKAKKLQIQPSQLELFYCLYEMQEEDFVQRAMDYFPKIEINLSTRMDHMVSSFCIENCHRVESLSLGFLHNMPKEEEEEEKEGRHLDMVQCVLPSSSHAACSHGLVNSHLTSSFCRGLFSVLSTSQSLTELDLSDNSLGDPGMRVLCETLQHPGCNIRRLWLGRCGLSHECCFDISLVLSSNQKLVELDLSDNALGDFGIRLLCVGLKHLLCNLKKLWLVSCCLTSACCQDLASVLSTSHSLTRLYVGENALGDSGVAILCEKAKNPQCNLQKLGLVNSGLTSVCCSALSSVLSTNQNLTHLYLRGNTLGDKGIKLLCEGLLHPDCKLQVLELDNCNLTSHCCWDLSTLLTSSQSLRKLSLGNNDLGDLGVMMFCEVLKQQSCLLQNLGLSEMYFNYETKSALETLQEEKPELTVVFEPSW

CC1(C)C(=O)N(CC(=O)NCCCc2nnn[nH]2)c2ccc(Br)cc21 [Compound 1, N-(3-(1H-tetrazol-5-yl)propyl)-2-(5-bromo-3,3-dimethyl-2-oxoindolin-1-yl)acetamide]
IC50 (human NLRP3 [1]): > 1000 nM
IC50 (human NLRP3 [2]; [3]): < 300 nM
IC50 (mouse NLRP3): < 300 nM

CC1(C)C(=O)N(CC(=O)NC2(CCC(=O)O)CCOC2)c2ccc(Br)cc21 (racemic) [Rac-3, 3-(3-(2-(5-bromo-3,3-dimethyl-2-oxoindolin-1-yl)acetamido)tetrahydrofuran-3-yl)propanoic acid]
IC50 (human NLRP3 [1]): 500 to 1000 nM
IC50 (human NLRP3 [2]; [3]): < 300 nM

CC1(C)C(=O)N(CC(=O)NCCCC(=O)O)c2ccc(I)cc21 [Compound 22, 4-(2-(5-iodo-3,3-dimethyl-2-oxoindolin-1-yl)acetamido)butanoic acid]
IC50 (human NLRP3 [1]): < 300 nM
IC50 (human NLRP3 [2]; [3]): < 300 nM

CC1(C)C(=O)N(CC(=O)NCCCC(=O)O)c2ccc(Br)c(F)c21 [Compound 21, 4-(2-(5-bromo-4-fluoro-3,3-dimethyl-2-oxoindolin-1-yl)acetamido)butanoic acid]
IC50 (human NLRP3 [1]): < 300 nM
IC50 (human NLRP3 [2]; [3]): < 300 nM

CC(C)(CCC(=O)O)NC(=O)CN1C(=O)C(C)(C)c2cc(Br)cc(O)c21 [Compound 31, 4-(2-(5-bromo-7-hydroxy-3,3-dimethyl-2-oxoindolin-1-yl)acetamido)-4-methylpentanoic acid]
IC50 (human NLRP3 [1]): 500 to 1000 nM
IC50 (human NLRP3 [2]; [3]): < 300 nM

CC1(C)C(=O)N(CC(=O)N[C@@H]2CCCN(c3nnn[nH]3)C2)c2ccc(Br)cc21 [Compound 11A, (R)-N-(1-(1H-tetrazol-5-yl)piperidin-3-yl)-2-(5-bromo-3,3-dimethyl-2-oxoindolin-1-yl)acetamide]
IC50 (human NLRP3 [1]): > 1000 nM
IC50 (mouse NLRP3): < 300 nM

CC1(C)C(=O)N(CC(=O)NC[C@H](F)CC(=O)O)c2c(F)cc(C3CC3)c(F)c21 [Compound 62A, (R)-4-(2-(5-cyclopropyl-4,7-difluoro-3,3-dimethyl-2-oxoindolin-1-yl)acetamido)-3-fluorobutanoic acid]
IC50 (human NLRP3 [1]): 300 to 500 nM
IC50 (mouse NLRP3): < 300 nM

CN(CCCC(=O)O)C(=O)CN1C(=O)C(C)(C)c2cc(Br)cc(O)c21 [Compound 30, 4-(2-(5-bromo-7-hydroxy-3,3-dimethyl-2-oxoindolin-1-yl)-N-methylacetamido)butanoic acid]
IC50 (human NLRP3 [1]): > 1000 nM
IC50 (human NLRP3 [2]; [3]): < 300 nM

CC(C)(CCc1nnn[nH]1)NC(=O)CN1C(=O)C(C)(C)c2cc(Br)cc(O)c21 [Compound 32, 2-(5-bromo-7-hydroxy-3,3-dimethyl-2-oxoindolin-1-yl)-N-(2-methyl-4-(1H-tetrazol-5-yl)butan-2-yl)acetamide]
IC50 (human NLRP3 [1]): > 1000 nM

CC1(C)C(=O)N(CC(=O)NCCCC(=O)O)c2ccc(Cl)cc21 [Compound 4, 4-(2-(5-chloro-3,3-dimethyl-2-oxoindolin-1-yl)acetamido)butanoic acid]
IC50 (human NLRP3 [1]): > 1000 nM

C[C@@H](CCC(=O)O)NC(=O)CN1C(=O)C(C)(C)c2cc(Br)cc(O)c21 [Compound 41B, (S)-4-(2-(5-bromo-7-hydroxy-3,3-dimethyl-2-oxoindolin-1-yl)acetamido)pentanoic acid]
IC50 (human NLRP3 [1]): > 1000 nM
IC50 (human NLRP3 [2]; [3]): < 300 nM

C[C@H]1C[C@@H](NC(=O)CN2C(=O)C(C)(C)c3cc(Br)cc(O)c32)CN(c2nnn[nH]2)C1 [Compound 26, 2-(5-bromo-7-hydroxy-3,3-dimethyl-2-oxoindolin-1-yl)-N-((3R,5S)-5-methyl-1-(1H-tetrazol-5-yl)piperidin-3-yl)acetamide]
IC50 (mouse NLRP3): 500 to 1000 nM

CC1(C)C(=O)N(CC(=O)NCC2(CC(=O)O)CC2)c2c(O)cc(Br)cc21 [Compound 35, 2-(1-((2-(5-bromo-7-hydroxy-3,3-dimethyl-2-oxoindolin-1-yl)acetamido)methyl)cyclopropyl)acetic acid]
IC50 (human NLRP3 [1]): > 1000 nM
IC50 (human NLRP3 [2]; [3]): < 300 nM

C[C@@H](CNC(=O)CN1C(=O)C(C)(C)c2c(F)c(C3CC3)cc(F)c21)CC(=O)O [Compound 61A, (R)-4-(2-(5-cyclopropyl-4,7-difluoro-3,3-dimethyl-2-oxoindolin-1-yl)acetamido)-3-methylbutanoic acid]
IC50 (human NLRP3 [1]): 300 to 500 nM
IC50 (mouse NLRP3): < 300 nM

C[C@@H](CC(=O)O)[C@@H](C)NC(=O)CN1C(=O)C(C)(C)c2c1ccc(C1CC1)c2F (single isomer, unassigned) [Compound 58A*]
IC50 (human NLRP3 [1]): 500 to 1000 nM
IC50 (human NLRP3 [2]; [3]): < 300 nM

C[C@H](NC(=O)CN1C(=O)C(C)(C)c2c(F)c(C(F)(F)F)cc(F)c21)[C@@H](C)CC(=O)O (single isomer, unassigned) [67C*]
IC50 (human NLRP3 [1]): > 1000 nM

CC1(C)C(=O)N(CC(=O)NCCCC(=O)O)c2c(O)cc(I)cc21 [Compound 28, 4-(2-(7-hydroxy-5-iodo-3,3-dimethyl-2-oxoindolin-1-yl)acetamido)butanoic acid]
IC50 (human NLRP3 [1]): > 1000 nM
IC50 (human NLRP3 [2]; [3]): < 300 nM

CC1(C)C(=O)N(CC(=O)NCCCc2nnn[nH]2)c2c(O)cc(Br)cc21 [Compound 33, N-(3-(1H-tetrazol-5-yl)propyl)-2-(5-bromo-7-hydroxy-3,3-dimethyl-2-oxoindolin-1-yl)acetamide]
IC50 (human NLRP3 [1]): > 1000 nM
IC50 (human NLRP3 [2]; [3]): < 300 nM

CC1(C)C(=O)N(CC(=O)NCCCc2nnn[nH]2)c2c(O)cc(C3CC3)cc21 [Compound 29, N-(3-(1H-tetrazol-5-yl)propyl)-2-(5-cyclopropyl-7-hydroxy-3,3-dimethyl-2-oxoindolin-1-yl)acetamide]
IC50 (human NLRP3 [1]): > 1000 nM

CC1(C)C(=O)N(CC(=O)NCCCC(=O)O)c2c(F)cc(Br)cc21 [Compound 24, 4-(2-(5-bromo-7-fluoro-3,3-dimethyl-2-oxoindolin-1-yl)acetamido)butanoic acid]
IC50 (human NLRP3 [2]; [3]): < 300 nM
IC50 (human NLRP3 [2]; LPS priming, nigericin stimulation, numeric values of Tables C1-C4): 20 nM
IC50 (mouse NLRP3): < 300 nM

C[C@H](CNC(=O)CN1C(=O)C(C)(C)c2c(F)c(C3CC3)cc(F)c21)CC(=O)O [Compound 61B, (S)-4-(2-(5-cyclopropyl-4,7-difluoro-3,3-dimethyl-2-oxoindolin-1-yl)acetamido)-3-methylbutanoic acid]
IC50 (human NLRP3 [1]): 500 to 1000 nM
